Experimental data from patent US5344926A, “Process for producing staurosporine derivatives” (Kyowa Hakko Kogyo Co., Ltd., priority 1992, dated 1994).
Values after ≈ are worked out from the molar mass of the structure shown. Values joined by “and” are separate entries in the source; they are usually repeats but may differ in a detail not shown here. Identical values can stand only once.

How the values were obtained:
platelets = test: Platelet increasing activity in Balb/c mice; assay type: in vivo; conditions: 20 mg/kg i.p. once a day for 5 days; for Number of platelets, individual mouse: 20 mg/kg; for Number of platelets (mean): mean of six mice
Description: Platelet increasing activity of Compound (I-1) was examined. Compound No. 1-α obtained in Example 13 was suspended in 0.3% carboxymethylcellulose aqueous solution containing 5% Tween 80. 0.2 ml of the suspension was intraperitoneally administered to six Balb/c mice (male, aged 7 weeks) at a dosage of 20 mg/kg once a day for 5 days. The blood (20 μl) was collected from the ophthalmic […] at the times, just before the test compound administration (Day 0), the 7th day (Day 7), the 14th day (Day 14), the 17th day (Day 17) and the 28th day (Day 28). The number of platelets was counted by a microcellcounter.

Protein kinase C = test: Protein Kinase C Inhibitory Activity (crude enzyme partially purified from rat brain); conditions: for selective inhibitory activity on protein kinase C, compared with UCN-01: PKC vs PKA; for IC50 PKC: pH 7.5, 30° C., 3 minutes; for PKA/PKC: ratio of IC50 PKA to IC50 PKC
Description: (1) Protein Kinase C Inhibitory Activity
Protein kinase C inhibitory activity (PKC) was measured by the method of Kikkawa, et al. (Journal of Biological Chemistry, 257, 13341 (1982)].
That is, 10 μl of a test solution containing UCN-01, Compound No. 1-α or Compound No. 1-β was added to 250 μl of a solution containing 2.5 μmoles of magnesium acetate, 50 μg of Histone Type IIS (manufactured by Sigma Co., Ltd.), 20 μg of phosphatidyl serine, 0.8 μg of diolein, 25 nmoles of CaCl2, 5 μg of crude enzyme (partically purified from rat brain according to the method of Kikkawa, et al.) and 5 μmoles of Tris-hydrochloride buffer (pH 7.5), followed by incubation at 30° C. for 3 minutes. Then, phosphorylation was initiated by addition of 1.25 nmoles of [γ-^32 p]ATP(5 to 10×10^3 cpm/nmole), followed by incubation at 30° C. for 3 minutes. The reaction was stopped by adding 25% trichloroacetic acid (TCA), and the reaction solution was filtered through a cellulose acetate membrane (pore size of 0.45 μm) (manufactured by Toyo Filter Paper Co., Ltd.). After the membrane was washed four times with 5% TCA, radioactivity remaining on the membrane was measured. As a control, the same procedure as above was repeated without addition of the test solution and radioactivity was likewise measured. A concentration of the test solution showing 50% inhibition as compared with the control was expressed as IC50.

Protein kinase A = target: T1, Protein kinase A (Bos taurus, UniProt P00517); test: Protein Kinase A Inhibitory Activity (crude enzyme partially purified from calf heart); assay type: biochemical; conditions: pH 6.8
T1 construct: partially purified from calf heart; from tissue; host or cells: calf heart, crude enzyme, partially purified
Description: (2) Protein Kinase A Inhibitory Activity
Protein kinase A inhibitory activity (PKA) was measured according to the method of Kuo, et al. [Biochemistry, 64, 1349 (1969)].
Subsequent procedures were conducted in a manner similar to the case of measuring protein kinase C inhibitory activity described above to determine IC50.

HeLa S3 cells = test: Growth Inhibition Test on HeLa S3 Cells; assay type: cell-based; conditions: Homo sapiens, 1 h exposure, then 72 h incubation, Neutral Red, read-out: IC50 (cell growth inhibition)
Description: Growth Inhibition Test on HeLa S3 Cells
HaLa S3 cells were suspended in an MEM medium containing 10% fetal calf serum and 2 mM glutamine at a concentration of 3×10^4 cells/ml, and 0.1 ml of the cell suspension was put into each well of a 96-well microtiter plate.
After culturing at 37° C. overnight in a carbon dioxide gas incubator, 0.05 ml of a test sample appropriately diluted with the medium was added to each well. The cells were further cultured for one hour in the carbon dioxide gas incubator and the culture supernatant was removed. The residue was washed once with a phosphate buffer saline [PBS(-)] and 0.1 ml of a fresh medium was added to each well, and the cells were further incubated at 37° C. for 72 hours in the carbon dioxide gas incubator. After removal of the supernatant, 0.1 ml of culture medium containing 0.02% Neutral Red was added to each well, and the cells were further incubated at 37° C. for one hour in the carbon dioxide gas incubator to stain the cells. After removal of the culture supernatant, each well was washed once with a physiological saline, and the dye was extracted with 0.001N HCl/30% methanol. Absorbance of the extract at 550 nm was measured with a microplate reader. The cell growth inhibition percentage was calculated according to the following formula from the absorbance of the extract of the cells treated with the test compound in various concentrations and that of intact cells. [formula]
From the cell growth inhibition percentage thus obtained, the concentration of the test compound which inhibits cell growth by 50% (IC50) was determined.

[1] = Day 0 (just before administration)

COC1C(N(C)CCO)CC2OC1(C)n1c3ccccc3c3c4c(c5c6ccccc6n2c5c31)C(=O)NC4O (stereo not drawn) [Compound No. 1-α]
Number of platelets, relative value (platelets; Day 0 (= 100)): 100% | Number of platelets, individual mouse (platelets; [1]): 81.8 and 89.6 and 75.0 and 89.7 and 97.0 and 86.5 | Number of platelets (mean) (platelets; [1]): 86.6 | Number of platelets, relative value (platelets; Day 7, relative to Day 0): 156.4% | Number of platelets, individual mouse (platelets; Day 7): 128.3 and 119.2 and 130.1 and 153.8 and 141.0 and 140.1 | Number of platelets (mean) (platelets; Day 7): 135.4 | Number of platelets, relative value (platelets; Day 14, relative to Day 0): 139.8% | Number of platelets, individual mouse (platelets; Day 14): 113.7 and 122.5 and 118.8 and 145.9 and 121.2 and 101.7 | Number of platelets (mean) (platelets; Day 14): 121.1 | Number of platelets, relative value (platelets; Day 17, relative to Day 0): 146.7% | Number of platelets, individual mouse (platelets; Day 17): 115.0 and 113.6 and 111.9 and 159.1 and 137.1 and 125.5 | Number of platelets (mean) (platelets; Day 17): 127.0 | Number of platelets, relative value (platelets; Day 28, relative to Day 0): 135.1% | Number of platelets, individual mouse (platelets; Day 28): 117.3 and 123.5 and 119.0 and 113.7 and 105.8 and 125.3 | Number of platelets (mean) (platelets; Day 28): 117.4 | selective inhibitory activity on protein kinase C, compared with UCN-01 (Protein kinase C): have a selective inhibitory activity on protein kinase C, compared with UCN-01 | IC50 PKC (Protein kinase C): 2.2 ng/mL (≈ 4.18 nM) | PKA/PKC (Protein kinase C): 118 | IC50 (Protein kinase A): 494 nM

COC1C(N(C)CCO)CC2OC1(C)n1c3ccccc3c3c4c(c5c6ccccc6n2c5c31)C(=O)NC4O (stereo not drawn) [Compound No. 1-β]
selective inhibitory activity on protein kinase C, compared with UCN-01 (Protein kinase C): have a selective inhibitory activity on protein kinase C, compared with UCN-01 | IC50 PKC (Protein kinase C): 19 ng/mL (≈ 36.1 nM) | PKA/PKC (Protein kinase C): 20 | IC50 (Protein kinase A): 703 nM

COC1C(N(C)CCO)CC2OC1(C)n1c3ccccc3c3c4c(c5c6ccccc6n2c5c31)C(=O)NC4O (stereo not drawn) [Compound No. 1]
IC50 (HeLa S3 cells): 2200 nM

COC1C(N(C)CC(O)CO)CC2OC1(C)n1c3ccccc3c3c4c(c5c6ccccc6n2c5c31)C(=O)NC4O (stereo not drawn) [Compound No. 2]
IC50 (HeLa S3 cells): 1900 nM

COC1C(N(C)CCCC(=O)O)CC2OC1(C)n1c3ccccc3c3c4c(c5c6ccccc6n2c5c31)C(=O)NC4O (stereo not drawn) [Compound No. 3]
IC50 (HeLa S3 cells): 4600 nM

COC1C(N(C)C(=O)CN2CCOCC2)CC2OC1(C)n1c3ccccc3c3c4c(c5c6ccccc6n2c5c31)C(=O)NC4O (stereo not drawn) [Compound No. 6]
IC50 (HeLa S3 cells): 2200 nM

COC1C(N(C)C(=O)CN(C)C)CC2OC1(C)n1c3ccccc3c3c4c(c5c6ccccc6n2c5c31)C(=O)NC4O (stereo not drawn) [Compound No. 7]
IC50 (HeLa S3 cells): 1500 nM

CN[C@@H]1C[C@H]2O[C@@](C)([C@@H]1OC)n1c3ccccc3c3c4c(c5c6ccccc6n2c5c31)C(=O)N[C@@H]4O [UCN-01, reference compound]
IC50 PKC (Protein kinase C): 2 ng/mL (≈ 4.14 nM) | PKA/PKC (Protein kinase C): 10
